Measured values reported in patent US20240118265A1, “MATERIALS AND METHODS TO IMPROVE IN VITRO TOXICITY PREDICTIONS” (priority 2022, published 2024).
Read-outs that look alike come from different tables or passages of the source.

Key:
[1] = Depth of Migration (DM) test; format: physicochemical
eye = conditions: cited from earlier work
cultured epithelium = conditions: cited from earlier work
bovine cornea = conditions: cited from earlier work
isolated chicken eye = conditions: without DM test; cited from earlier work
RhCE tissues = conditions: without DM test; cited from earlier work
[2] = 1:100 dilution in DM dye solution, 30 μL, 15° platform, after 30-120 seconds, table value

Compound	DM Distance Traveled [1, 2] [cm]	in vivo GHS (eye; GHS category)	in vivo GHS (eye; rabbit, in vivo)	further results
CC(C)(O)CCC(C)(C)O [2,5-Dimethyl-2,5-hexanediol]	4.5	Cat. 1		Short Time Exposure (STE) prediction versus in vivo (cultured epithelium; without DM test): false negatives
CC(=O)O[C@H]1NC(=O)[C@@H]1[C@@H](C)O[Si](C)(C)C(C)(C)C [(2R,3R)-3-((R)-1-(tert-Butyldimethylsiloxy)ethyl)-4-oxoazetidin-2-yl acetate]	4.5	Cat. 2		BCOP prediction versus in vivo (bovine cornea; without DM test): false negatives
COC(=O)CC#N [Methyl cyanoacetate]	4.5	Cat. 2		ICE prediction versus in vivo (isolated chicken eye): false negatives; EpiOcular prediction versus in vivo (RhCE tissues): false negatives; Short Time Exposure (STE) prediction versus in vivo (cultured epithelium; without DM test): false negatives
O=C(Cl)c1c(Cl)cccc1Cl [2,6-Dichlorobenzoyl chloride]	4.5	Cat. 2		Short Time Exposure (STE) prediction versus in vivo (cultured epithelium; without DM test): false negatives
CCOC(=O)CC(=O)c1cc(F)c(Cl)nc1Cl [Ethyl 2,6-dichloro-5-fluoro-beta-oxo-3-pyridine propionate]	4.5		Cat. 2	BCOP prediction versus in vivo (bovine cornea): false negatives
Cc1c(COC(=O)[C@@H]2[C@H](/C=C(\Cl)C(F)(F)F)C2(C)C)cccc1-c1ccccc1 (racemic) [Bifenthrin]	4.5	Cat. 2		EpiOcular prediction versus in vivo (RhCE tissues): false negatives
CCO [Ethanol]	4.5	Cat. 2		Short Time Exposure (STE) prediction versus in vivo (cultured epithelium; without DM test): false negatives
CC(C)(C)CC(C)(C)c1ccc(O)cc1 [4-(1,1,3,3-Tetramethylbutyl)phenol]		Cat. 1		DM Distance Traveled [1]: 4.5 cm; BCOP prediction versus in vivo (bovine cornea; without DM test): false negatives
CC(C)O [Isopropanol]	4.5	Cat. 2		Short Time Exposure (STE) prediction versus in vivo (cultured epithelium; without DM test): false negatives
c1ccc2c(c1)CCc1ccccc1N2 [Iminodibenzyl]	4.5		Cat. 1	EpiOcular prediction versus in vivo (RhCE tissues): false negatives
C=CC(=O)OCCO [Hydroxyethyl acrylate]				DM Distance Traveled [1]: 4.5 cm
C/C=C/C=C/C(=O)[O-].[K+] [Potassium sorbate]			Cat. 2	DM Distance Traveled [1]: 4.5 cm; Short Time Exposure (STE) prediction versus in vivo (cultured epithelium): false negatives
CCCOCC(C)OCC(C)O (stereo not drawn) [1-(1-methyl-2-propoxyethoxy)propan-2-ol]			Cat. 2	DM Distance Traveled [1]: 4.5 cm; Short Time Exposure (STE) prediction versus in vivo (cultured epithelium): false negatives
O=C([O-])c1ccccc1O.[Na+] [Sodium salicylate]			Cat. 1	DM Distance Traveled [1]: 4.5 cm; Short Time Exposure (STE) prediction versus in vivo (cultured epithelium): false negatives
C=C1C2CCC(C2)C1(C)C (stereo not drawn) [Camphene]	4.5			
CCN(CC)CCCC(C)Nc1c2ccc(Cl)cc2nc2ccc(OC)cc12 (stereo not drawn) [Quinacrine]	4.5		Cat. 1	BCOP prediction versus in vivo (bovine cornea; without DM test): false negatives
CCCCOc1ccc(OCCCC)cc1 [1,4-dibutoxy benzene]	4.5	Cat. 2		EpiOcular prediction versus in vivo (RhCE tissues): false negatives
Triton X-100 (10%)				known ocular irritancy class of the chemical (eye; reference classification): ocular corrosive
O=Cc1ccc(C(=O)O)cc1 [4-carboxybenzaldehyde]	4.5	Cat. 2		ICE prediction versus in vivo (isolated chicken eye): false negatives
COC(C)=O [Methyl acetate]	4.5	Cat. 2		Short Time Exposure (STE) prediction versus in vivo (cultured epithelium; without DM test): false negatives
N[C@@H](CC(=O)O)C(=O)O [L-Aspartic acid]	4.5			
CCCCCCCCCCCCCCO [Myristyl alcohol]	4.5		Cat. 2	Short Time Exposure (STE) prediction versus in vivo (cultured epithelium): false negatives
